The source of these data is patent US11446287B2, “Compounds and methods for EP300 or CBP modulation and indications therefor” (Opna Immuno-Oncology SA, priority 2019, dated 2022).

Structures are written as SMILES. pIC50: −log10 of the molar value.

In this experiment the target is T1, Recombinant human EP300 containing the bromodomain (EP300-BD (1040-1161)) (Homo sapiens, UniProt Q09472).
T1 construct: Recombinant human EP300 bromodomain (EP300-BD (1040-1161)); made in house; host or cells: E. coli BL21-CodonPlus (DE3), modified pET vector
T1 sequence (Q09472 1040-1161): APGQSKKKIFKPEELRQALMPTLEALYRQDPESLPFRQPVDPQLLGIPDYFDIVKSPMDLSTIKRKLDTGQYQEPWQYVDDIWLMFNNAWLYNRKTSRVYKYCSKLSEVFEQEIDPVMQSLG
In words: EP300 Alphascreen binding assay. In outline:
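Displacement of a biotinylated acetyl-K56 histone H3 peptide from the N-His bromodomain construct (1040-1161) measured by AlphaScreen proximity, beads at 7.5 μg/ml final, read 60 min after addition. Protein, peptide and compound first incubated 1 h at room temperature, pH 7.5 HEPES buffer; IC50 by four-parameter logistic fit.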

Take `Cc1nn(CC(C)(C)O)cc1-n1cc(-c2ccc(C(=O)O)cc2OC(F)(F)F)c2cc(-c3c(C)noc3C)cnc21` [P-0365, 4-(5-(3,5-dimethylisoxazol-4-yl)-1-(1-(2-hydroxy-2-methylpropyl)-3-methyl-1H-pyrazol-4-yl)-1H-pyrrolo[2,3-b]pyridin-3-yl)-3-(trifluoromethoxy)benzoic acid]: the pIC50 is 6.00 to 10.00.
Turning to `Cc1nn(CC(=O)N(C)C)cc1-n1cc(-c2ccc(C(=O)O)cc2OC(F)(F)F)c2cc(-c3c(C)noc3C)cnc21` [P-0366, 4-(1-(1-(2-(dimethylamino)-2-oxoethyl)-3-methyl-1H-pyrazol-4-yl)-5-(3,5-dimethylisoxazol-4-yl)-1H-pyrrolo[2,3-b]pyridin-3-yl)-3-(trifluoromethoxy)benzoic acid], the negative-log IC50 (pIC50) was 6.00 to 10.00.
Take `Cc1cc(C(=O)O)cc(OCC(F)F)c1-c1cn(C2CCOCC2)c2ncc(-c3c(C)noc3C)cc12` [P-0367, 3-(2,2-difluoroethoxy)-4-(5-(3,5-dimethylisoxazol-4-yl)-1-(tetrahydro-2H-pyran-4-yl)-1H-pyrrolo[2,3-b]pyridin-3-yl)-5-methylbenzoic acid]: the pIC50 was 6.00 to 10.00.
To `COc1nc(C(=O)O)ccc1-c1cn(C2CCOCC2)c2ncc(-c3c(C)noc3C)cc12` [P-0368, 5-(5-(3,5-dimethylisoxazol-4-yl)-1-(tetrahydro-2H-pyran-4-yl)-1H-pyrrolo[2,3-b]pyridin-3-yl)-6-methoxypicolinic acid] belongs 6.00 to 10.00.
With `Cc1noc(C)c1-c1cnc2c(c1)c(-c1c(F)cc(C(=O)O)cc1OC(C)C)cn2C(C1CC1)C1CC1` [P-0369, 4-(1-(dicyclopropylmethyl)-5-(3,5-dimethylisoxazol-4-yl)-1H-pyrrolo[2,3-b]pyridin-3-yl)-3-fluoro-5-isopropoxybenzoic acid], the negative logarithm of the IC50 (pIC50) was 6.00 to 10.00.
For the compound `CCOc1cc(C(=O)O)cc(Cl)c1-c1cn(C(C2CC2)C2CC2)c2ncc(-c3c(C)noc3C)cc12` [P-0370, 3-chloro-4-(1-(dicyclopropylmethyl)-5-(3,5-dimethylisoxazol-4-yl)-1H-pyrrolo[2,3-b]pyridin-3-yl)-5-ethoxybenzoic acid], the negative-log IC50 (pIC50) was 6.00 to 10.00.
As for `CCOc1cc(C(=O)O)cc(Cl)c1-c1cn(C2CCOCC2)c2ncc(-c3c(C)noc3C)cc12` [P-0371, 3-chloro-4-(5-(3,5-dimethylisoxazol-4-yl)-1-(tetrahydro-2H-pyran-4-yl)-1H-pyrrolo[2,3-b]pyridin-3-yl)-5-ethoxybenzoic acid], the pIC50 is 6.00 to 10.00.
Consider `Cc1noc(C)c1-c1cnc2c(c1)c(-c1c(Cl)cc(C(=O)O)cc1OC(C)C)cn2C1CCOCC1` [P-0372, 3-chloro-4-(5-(3,5-dimethylisoxazol-4-yl)-1-(tetrahydro-2H-pyran-4-yl)-1H-pyrrolo[2,3-b]pyridin-3-yl)-5-isopropoxybenzoic acid], for which the pIC50 was 6.00 to 10.00.
For `CCOc1cc(C(=O)O)nc(OCC)c1-c1cn(C2CCOCC2)c2ncc(-c3c(C)noc3C)cc12` [P-0373, 5-(5-(3,5-dimethylisoxazol-4-yl)-1-(tetrahydro-2H-pyran-4-yl)-1H-pyrrolo[2,3-b]pyridin-3-yl)-4,6-diethoxypicolinic acid], the pIC50 is 6.00 to 10.00.
Regarding `CCOc1cc(C(=O)O)c(F)c(OCC)c1-c1cn(C2CCOCC2)c2ncc(-c3c(C)noc3C)cc12` [P-0374, 4-(5-(3,5-dimethylisoxazol-4-yl)-1-(tetrahydro-2H-pyran-4-yl)-1H-pyrrolo[2,3-b]pyridin-3-yl)-3,5-diethoxy-2-fluorobenzoic acid], the pIC50 is 6.00 to 10.00.
With `CCOc1cc(C(=O)O)c(F)cc1-c1cn(C2CCOCC2)c2ncc(-c3c(C)noc3C)cc12` [P-0375, 4-(5-(3,5-dimethylisoxazol-4-yl)-1-(tetrahydro-2H-pyran-4-yl)-1H-pyrrolo[2,3-b]pyridin-3-yl)-5-ethoxy-2-fluorobenzoic acid] the figure was 6.00 to 10.00.
With `CCOc1nc(C(=O)O)ccc1-c1cn(C2CCOCC2)c2ncc(-c3c(C)noc3C)cc12` [P-0376, 5-(5-(3,5-dimethylisoxazol-4-yl)-1-(tetrahydro-2H-pyran-4-yl)-1H-pyrrolo[2,3-b]pyridin-3-yl)-6-ethoxypicolinic acid], the pIC50 was 6.00 to 10.00.
On to `CCOc1cc(C(=O)O)c(F)cc1-c1cn(-c2ccccc2F)c2ncc(-c3c(C)noc3C)cc12` [P-0377, 4-(5-(3,5-dimethylisoxazol-4-yl)-1-(2-fluorophenyl)-1H-pyrrolo[2,3-b]pyridin-3-yl)-5-ethoxy-2-fluorobenzoic acid], for which the pIC50 was 6.00 to 10.00.
`Cc1noc(C)c1-c1cnc2c(c1)c(-c1ccc(C(=O)O)cc1OC(F)(F)F)cn2C1CCC1` [P-0378, 4-(1-cyclobutyl-5-(3,5-dimethylisoxazol-4-yl)-1H-pyrrolo[2,3-b]pyridin-3-yl)-3-(trifluoromethoxy)benzoic acid]: the pIC50 is 6.00 to 10.00.
On to `Cc1noc(C)c1-c1cnc2c(c1)c(-c1ccc(C(=O)O)cc1OC1CC1)cn2C1CCOCC1` [P-0379, 3-cyclopropoxy-4-(5-(3,5-dimethylisoxazol-4-yl)-1-(tetrahydro-2H-pyran-4-yl)-1H-pyrrolo[2,3-b]pyridin-3-yl)benzoic acid], for which the pIC50 was 6.00 to 10.00.
`Cc1noc(C)c1-c1cnc2c(c1)c(-c1c(Cl)cc(C(=O)O)cc1OC(F)(F)F)cn2C(C1CCC1)C1CCC1` [P-0380, 3-chloro-4-(1-(dicyclobutylmethyl)-5-(3,5-dimethylisoxazol-4-yl)-1H-pyrrolo[2,3-b]pyridin-3-yl)-5-(trifluoromethoxy)benzoic acid]: the pIC50 was 6.00 to 10.00.
Turning to `Cc1noc(C)c1-c1cnc2c(c1)c(-c1c(Cl)cc(C(=O)O)cc1OC1CC1)cn2C1CCOCC1` [P-0381, 3-chloro-5-cyclopropoxy-4-(5-(3,5-dimethylisoxazol-4-yl)-1-(tetrahydro-2H-pyran-4-yl)-1H-pyrrolo[2,3-b]pyridin-3-yl)benzoic acid], the pIC50 is 6.00 to 10.00.
`Cc1noc(C)c1-c1cnc2c(c1)c(-c1ccc(C(=O)O)cc1OC(F)(F)F)cn2C1CCCC1` [P-0382, 4-(1-cyclopentyl-5-(3,5-dimethylisoxazol-4-yl)-1H-pyrrolo[2,3-b]pyridin-3-yl)-3-(trifluoromethoxy)benzoic acid]: the pIC50 is 6.00 to 10.00.
Consider `Cc1noc(C)c1-c1cnc2c(c1)c(-c1ccc(C(=O)O)cc1OC(F)(F)F)cn2C1(C)CCOC1` (centres unmarked) [P-0383, 4-(5-(3,5-dimethylisoxazol-4-yl)-1-(3-methyltetrahydrofuran-3-yl)-1H-pyrrolo[2,3-b]pyridin-3-yl)-3-(trifluoromethoxy)benzoic acid], for which the negative logarithm of the IC50 (pIC50) is 6.00 to 10.00.
For `Cc1noc(C)c1-c1cnc2c(c1)c(-c1ccc(C(=O)O)cc1OC(F)(F)F)cn2-c1cnc(C2CC2)nc1` [P-0384, 4-(1-(2-cyclopropylpyrimidin-5-yl)-5-(3,5-dimethylisoxazol-4-yl)-1H-pyrrolo[2,3-b]pyridin-3-yl)-3-(trifluoromethoxy)benzoic acid], the negative logarithm of the IC50 (pIC50) was 6.00 to 10.00.
For the compound `Cc1noc(C)c1-c1cnc2c(c1)c(-c1ccc(C(=O)O)cc1OC(F)(F)F)cn2C1(C)CCOCC1` [P-0385, 4-(5-(3,5-dimethylisoxazol-4-yl)-1-(4-methyltetrahydro-2H-pyran-4-yl)-1H-pyrrolo[2,3-b]pyridin-3-yl)-3-(trifluoromethoxy)benzoic acid], the negative-log IC50 (pIC50) was 6.00 to 10.00.
`Cc1noc(C)c1-c1cnc2c(c1)c(-c1c(Cl)cc(C(=O)O)cc1OC(F)(F)F)cn2-c1cnc(C2CC2)nc1` [P-0386, 3-chloro-4-(1-(2-cyclopropylpyrimidin-5-yl)-5-(3,5-dimethylisoxazol-4-yl)-1H-pyrrolo[2,3-b]pyridin-3-yl)-5-(trifluoromethoxy)benzoic acid]: the pIC50 is 6.00 to 10.00.
With `Cc1noc(C)c1-c1cnc2c(c1)c(-c1ccc(C(=O)O)cc1OCC(F)F)cn2-c1cnc(C2CC2)nc1` [P-0387, 4-(1-(2-cyclopropylpyrimidin-5-yl)-5-(3,5-dimethylisoxazol-4-yl)-1H-pyrrolo[2,3-b]pyridin-3-yl)-3-(2,2-difluoroethoxy)benzoic acid] the figure was 6.00 to 10.00.
